Data as given in PubChem BioAssay AID2060599 (Molecular Pharmacology Branch, DTP, NCI, 2025).

Tested on: 817829-284-R-J1-PDC complex spheroids, viability
Assay: Anticancer human tumor 817829-284-R-J1-PDC patient-derived colon adenocarcinoma cell line growth inhibition [CLK]
Settings: for viability, T/C: stronger effect = lower value; active = viability on the fitted dose curve at most 10% of control; inactive = the rest
Outline: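 Patient-derived tumor cells grown as complex spheroids with HUVEC endothelial cells and mesenchymal stem cells, treated with drug combinations. Concentrations descend in half-log steps from near clinical Cmax, or from 10 microM if Cmax unknown.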

[1] = curve of first compound, second compound 0.0316 µM
[2] = curve of first compound, second compound 0.1 µM
[3] = curve of first compound, second compound 0.316 µM
[4] = curve of first compound, second compound 1 µM
[5] = curve of first compound, second compound 3.16 µM
[6] = curve of first compound, second compound 10 µM
[7] = second compound 0.0316 µM, first compound 0.0316 µM
[8] = second compound 0.0316 µM, first compound 0.1 µM
[9] = second compound 0.0316 µM, first compound 0.316 µM
[10] = second compound 0.0316 µM, first compound 1 µM
[11] = second compound 0.0316 µM, first compound 3.16 µM
[12] = second compound 0.0316 µM, first compound 10 µM
[13] = second compound 0.1 µM, first compound 0.0316 µM
[14] = second compound 0.1 µM, first compound 0.1 µM
[15] = second compound 0.1 µM, first compound 0.316 µM
[16] = second compound 0.1 µM, first compound 1 µM
[17] = second compound 0.1 µM, first compound 3.16 µM
[18] = second compound 0.1 µM, first compound 10 µM
[19] = second compound 0.316 µM, first compound 0.0316 µM
[20] = second compound 0.316 µM, first compound 0.1 µM
[21] = second compound 0.316 µM, first compound 0.316 µM
[22] = second compound 0.316 µM, first compound 1 µM
[23] = second compound 0.316 µM, first compound 3.16 µM
[24] = second compound 0.316 µM, first compound 10 µM
[25] = second compound 1 µM, first compound 0.0316 µM
[26] = second compound 1 µM, first compound 0.1 µM
[27] = second compound 1 µM, first compound 0.316 µM
[28] = second compound 1 µM, first compound 1 µM
[29] = second compound 1 µM, first compound 3.16 µM
[30] = second compound 1 µM, first compound 10 µM
[31] = second compound 3.16 µM, first compound 0.0316 µM
[32] = second compound 3.16 µM, first compound 0.1 µM
[33] = second compound 3.16 µM, first compound 0.316 µM
[34] = second compound 3.16 µM, first compound 1 µM
[35] = second compound 3.16 µM, first compound 3.16 µM
[36] = second compound 3.16 µM, first compound 10 µM
[37] = second compound 10 µM, first compound 0.0316 µM
[38] = second compound 10 µM, first compound 0.1 µM
[39] = second compound 10 µM, first compound 0.316 µM
[40] = second compound 10 µM, first compound 1 µM
[41] = second compound 10 µM, first compound 3.16 µM
[42] = second compound 10 µM, first compound 10 µM
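Also: spheroids exposed to the agents for seven days before readout.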

Nc1ccccc1NC(=O)c1ccc(CNC(=O)OCc2cccnc2)cc1 + CN1CCN(c2cc(C(=O)Nc3cc4cc(-c5cnn(C)c5)ccc4cn3)ccn2)CC1
inactive: viability, T/C [7] 61.1% | viability, T/C [8] 70.6% | viability, T/C [9] 39.5% | viability, T/C [10] 21.9% | viability, T/C [13] 15.1% | viability, T/C [14] 14.2% | viability, T/C [15] 13.4%
< 31.6 nM: IC50 [2] | IC50 [3] | IC50 [4] | IC50 [5] | IC50 [6]
active: viability, T/C [11] 3.59% | viability, T/C [12] 0.06% | viability, T/C [16] 5.61% | viability, T/C [17] 0.84% | viability, T/C [18] 0.03% | viability, T/C [19] 1.55% | viability, T/C [20] 1.54% | viability, T/C [21] 1.41% | viability, T/C [22] 0.56% | viability, T/C [23] 0.03% | viability, T/C [24] 0.03% | viability, T/C [25] 0.11% | viability, T/C [26] 0.14% | viability, T/C [27] 0.11% | viability, T/C [28] 0.1% | viability, T/C [29] 0.05% | viability, T/C [30] 0.06% | viability, T/C [31] 0.1% | viability, T/C [32] 0.12% | viability, T/C [33] 0.15% | viability, T/C [34] 0.15% | viability, T/C [35] 0.16% | viability, T/C [36] 0.22% | viability, T/C [37] 0.04% | viability, T/C [38] 0.07% | viability, T/C [39] 0.1% | viability, T/C [40] 0.3% | viability, T/C [41] 0.1% | viability, T/C [42] 0.1%
223 nM: IC50 [1]

O=C(c1cc(Cc2n[nH]c(=O)c3ccccc23)ccc1F)N1CCN(C(=O)C2CC2)CC1 + CNC(=O)c1ccc(Nc2nc(OC3CCCC3)c3c(-c4ccc5nc(C)oc5c4)c[nH]c3n2)c(OC)c1
inactive: viability, T/C [7] 30.4% | viability, T/C [8] 42.9% | viability, T/C [9] 38% | viability, T/C [10] 26.7% | viability, T/C [11] 31.5% | viability, T/C [12] 22.4% | viability, T/C [13] 24.2% | viability, T/C [14] 19.2% | viability, T/C [15] 30.9% | viability, T/C [16] 22.9% | viability, T/C [17] 24.2% | viability, T/C [18] 24.6% | viability, T/C [19] 26.9% | viability, T/C [20] 22% | viability, T/C [21] 27.7% | viability, T/C [22] 31.5% | viability, T/C [23] 25% | viability, T/C [24] 17.2% | viability, T/C [25] 22.3% | viability, T/C [26] 20.1% | viability, T/C [27] 20% | viability, T/C [28] 17.8% | viability, T/C [29] 16.9% | viability, T/C [30] 14.7% | viability, T/C [31] 21.9% | viability, T/C [32] 20.9% | viability, T/C [33] 19.4% | viability, T/C [34] 25.5% | viability, T/C [35] 18.5% | viability, T/C [36] 22% | viability, T/C [37] 21.9% | viability, T/C [38] 22.9% | viability, T/C [39] 30.8% | viability, T/C [40] 18.1% | viability, T/C [41] 15.8% | viability, T/C [42] 15.3%
< 31.6 nM: IC50 [1] | IC50 [2] | IC50 [3] | IC50 [4] | IC50 [5] | IC50 [6]

CN1CCN(c2cc(C(=O)Nc3cc4cc(-c5cnn(C)c5)ccc4cn3)ccn2)CC1
inactive: viability, T/C (compound 0.0316 µM) 70.5% [middle of 12 runs] | viability, T/C (compound 0.1 µM) 20% [middle of 12 runs]
49.5 nM [middle of 12 runs]: IC50 (compound alone, run of 08/14/2023)
active: viability, T/C (compound 0.316 µM) 2.17% [middle of 12 runs] | viability, T/C (compound 1 µM) 0.13% [middle of 8 runs] | viability, T/C (compound 3.16 µM) 0.17% [middle of 7 runs] | viability, T/C (compound 10 µM) 0.13% [middle of 8 runs]

COc1cccc2c1C(=O)c1c(O)c3c(c(O)c1C2=O)CC(O)(C(=O)CO)CC3OC1CC(N)C(O)C(C)O1 (stereo not given)
active: viability, T/C (compound 0.316 µM) 4.21% | viability, T/C (compound 1 µM) 0.22% | viability, T/C (compound 3.16 µM) 0.3% | viability, T/C (compound 10 µM) 0.85%
inactive: viability, T/C (compound 0.0316 µM) 20.5% | viability, T/C (compound 0.1 µM) 16.4%
< 31.6 nM: IC50 (curve of compound)

CCN1CCN(Cc2ccc(Nc3ncc(F)c(-c4cc(F)c5nc(C)n(C(C)C)c5c4)n3)nc2)CC1 + CN1CCN(c2cc(C(=O)Nc3cc4cc(-c5cnn(C)c5)ccc4cn3)ccn2)CC1
active: viability, T/C (second compound 0.316 µM, first compound 0.00316 µM) 1.34% | viability, T/C (second compound 0.316 µM, first compound 0.01 µM) 1.6% | viability, T/C [19] 1.6% | viability, T/C [20] 1.6% | viability, T/C [21] 2.31% | viability, T/C [22] 0.61% | viability, T/C (second compound 1 µM, first compound 0.00316 µM) 0.17% | viability, T/C (second compound 1 µM, first compound 0.01 µM) 0.12% | viability, T/C [25] 0.08% | viability, T/C [26] 0.08% | viability, T/C [27] 0.1% | viability, T/C [28] 0.19% | viability, T/C (second compound 3.16 µM, first compound 0.00316 µM) 0.13% | viability, T/C (second compound 3.16 µM, first compound 0.01 µM) 0.14% | viability, T/C [31] 0.12% | viability, T/C [32] 0.15% | viability, T/C [33] 0.12% | viability, T/C [34] 0.1% | viability, T/C (second compound 10 µM, first compound 0.00316 µM) 0.09% | viability, T/C (second compound 10 µM, first compound 0.01 µM) 0.1% | viability, T/C [37] 0.08% | viability, T/C [38] 0.09% | viability, T/C [39] 0.11% | viability, T/C [40] 0.08%
< 3.16 nM: IC50 [2] | IC50 [3] | IC50 [4] | IC50 [5] | IC50 [6]
inactive: viability, T/C (second compound 0.0316 µM, first compound 0.00316 µM) 49.6% | viability, T/C (second compound 0.0316 µM, first compound 0.01 µM) 64.4% | viability, T/C [7] 46.2% | viability, T/C [8] 36.6% | viability, T/C [9] 36.9% | viability, T/C [10] 29.2% | viability, T/C (second compound 0.1 µM, first compound 0.00316 µM) 17.4% | viability, T/C (second compound 0.1 µM, first compound 0.01 µM) 16.2% | viability, T/C [13] 15.4% | viability, T/C [14] 20.7% | viability, T/C [15] 18.7% | viability, T/C [16] 11.8%
21.1 nM: IC50 [1]
